Results: ChEMBL document CHEMBL1123884, “Preparation and antileukemic screening of some new 6'-deoxyhexopyranosyladenine nucleosides” (J Med Chem, 1987)

Experiments:
L1210 [1] = assay: Antileukemic activity against L1210 cells in culture at a concentration of 10e-4 M; Inactive; format: functional, cell-based, Mus musculus
L1210 [2] = assay: Antileukemic activity against L1210 cells in culture at a concentration of 10e-4 M; Active; format: functional, cell-based, Mus musculus
L1210 [3] = assay: Antileukemic activity against L1210 cells in culture at a concentration of 5 X 10e-4 M; extremely weak; format: functional, cell-based; settings: Mus musculus

IC50 (L1210 [1])	SMILES	other results
Not Active	C[C@H]1O[C@@H](n2cnc3c(N)ncnc32)[C@H](O)[C@@H](O)[C@@H]1O	
Not Active	C[C@@H]1O[C@@](CO)(n2cnc3c(N)ncnc32)[C@@H](O)[C@@H]1O	
Not Active	C[C@@H]1O[C@@H](n2cnc3c(N)ncnc32)[C@H](O)[C@H](O)[C@@H]1O	

Further lines, the molecule ahead of its results:

SMILES	IC50 (L1210 [1])	other results
Nc1ncnc2c1ncn2C1OC(CO)C(O)C(O)C1O (stereo unspecified)	Not Active	
C[C@H]1O[C@@H](n2cnc3c(N)ncnc32)[C@H](O)[C@@H](O)[C@H]1O		IC50 (L1210 [2]): Active
Nc1ncnc2c1ncn2C1OCC(O)C(O)C1O (stereo unspecified)		inhibition (L1210 [3]): Extremely weak
